Measured values as given in patent US11840686B2, “Modulation of prekallikrein (PKK) expression” (Ionis Pharmaceuticals, Inc., priority 2013, dated 2023).
Strand notation (5' to 3'): a small letter for the sugar, then the base; units joined by * are phosphorothioate-linked, units joined directly phosphodiester-linked; [ ] holds rarer units or linkages, { } end groups; capitals alone tell only the bases. e = 2'-O-(2-methoxyethyl) (MOE); k = constrained ethyl (cEt); [5mC] = 5-methylcytosine; d = 2'-deoxy (DNA)

Columns and labels:
human PKK mRNA [1] = assay: Dose-dependent antisense inhibition of human PKK in HepaRG cells, 0.11-3.00 uM (Example 6); format: cell-based; details: for IC50: 0.11-3.00 μM; for percent inhibition of PKK mRNA, 0.11 μM / percent inhibition of PKK mRNA, 0.33 μM / percent inhibition of PKK mRNA, 1.00 μM / percent inhibition of PKK mRNA, 3.00 μM: electroporation, approx. 16 hours, relative to untreated control cells
Procedure, shortened: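 HepaRG cells were electroporated with antisense oligonucleotide at 0.11, 0.33, 1.00 or 3.00 μM. After about 16 h, PKK mRNA was quantified by qRT-PCR with primer probe set RTS3454 and normalized to total RNA by RIBOGREEN. IC50 was derived from the dose series.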

human PKK mRNA [2] = assay: Antisense inhibition of human PKK mRNA in HepaRG cells, 1,000 nM, MOE/deoxy/cEt oligonucleotides (Example 3); format: cell-based
Procedure, shortened: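 HepaRG cells at 20,000 per well electroporated with 1,000 nM 16-mer MOE/cEt/deoxy gapmers (phosphorothioate, 5-methylcytosine). After about 24 h, PKK mRNA measured by qRT-PCR with primer probe set RTS3454, normalized to RIBOGREEN total RNA. Reported as percent inhibition versus untreated cells.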

[3] = HepaRG cells, electroporation with 1,000 nM antisense oligonucleotide, approx. 24 hours, PKK mRNA by RT-PCR (RTS3454), relative to untreated control cells, Table 26 experiment
[4] = Table 27, HepaRG cells, 1,000 nM antisense oligonucleotide, human PKK mRNA
[5] = Table 30, human PKK mRNA, HepaRG cells, 1,000 nM antisense oligonucleotide

Substance | IC50 (human PKK mRNA [1]) [nM] | percent inhibition of PKK mRNA, 0.11 μM (human PKK mRNA [1]) [%] | percent inhibition of PKK mRNA, 0.33 μM (human PKK mRNA [1]) [%] | percent inhibition of PKK mRNA, 1.00 μM (human PKK mRNA [1]) [%] | percent inhibition of PKK mRNA, 3.00 μM (human PKK mRNA [1]) [%] | % inhibition (human PKK mRNA [2]; HepaRG cells, electroporation with 1,000 nM antisense oligonucleotide, approx. 24 hours, PKK mRNA by RT-PCR (RTS3454), relative to untreated control cells, Table 25 experiment) [%] | % inhibition (human PKK mRNA [2]; [3]) [%] | % inhibition (human PKK mRNA [2]; [4]) [%] | % inhibition (human PKK mRNA [2]; [5]) [%]
548220 (eG*e[5mC]*kA*dG*dA*dA*dA*dT*d[5mC]*d[5mC]*dT*dG*dT*kG*k[5mC]*eA; antisense) [compound 548220] | > 3000 | 0 | 0 | 0 | 6 | 69 | – | – | –
548247 (antisense e[5mC]*eG*kA*dT*dT*dT*dT*d[5mC]*d[5mC]*dA*dT*dG*d[5mC]*kA*kT*eA) [compound 548247] | 500 | 16 | 50 | 62 | 82 | – | 56 | – | –
548265 (antisense e[5mC]*e[5mC]*kT*d[5mC]*dT*dT*dG*dA*dT*dT*dT*dG*dG*kG*k[5mC]*eA) [compound 548265] | – | 47 | 69 | 78 | 67 | – | 85 | – | –
548278 (antisense eG*eG*kT*dT*d[5mC]*d[5mC]*d[5mC]*dT*dA*dG*d[5mC]*dG*dG*kT*k[5mC]*e[5mC]) [compound 548278] | 400 | 3 | 59 | 78 | 93 | – | 74 | – | –
548338 (antisense eA*eT*kG*dA*dA*dA*d[5mC]*dT*dG*dT*dG*dG*d[5mC]*kT*k[5mC]*eG) [compound 548338] | 200 | 41 | 58 | 79 | 95 | – | – | 80 | –
548343 (antisense eT*eA*kG*dT*dG*dA*dT*dA*dA*dG*dA*dG*d[5mC]*kT*kG*eG) [compound 548343] | – | 61 | 67 | 88 | 92 | – | – | 78 | –
548348 (antisense eT*eG*kA*dG*dT*dG*dA*dT*dG*d[5mC]*d[5mC]*dT*dT*k[5mC]*k[5mC]*eA) [compound 548348] | 400 | 19 | 46 | 67 | 91 | – | – | 82 | –
548409 (antisense eG*eT*kA*dT*d[5mC]*dA*d[5mC]*dT*dG*dT*dA*d[5mC]*dT*kA*kG*eT) [compound 548409] | 300 | 21 | 60 | 90 | 93 | – | – | – | 81
548410 (antisense eA*eG*kT*dA*dT*d[5mC]*dA*d[5mC]*dT*dG*dT*dA*d[5mC]*kT*kA*eG) [compound 548410] | 200 | 31 | 58 | 85 | 82 | – | – | – | 85
548422 (antisense eG*eT*kA*dT*d[5mC]*dA*d[5mC]*dT*dG*dT*d[5mC]*d[5mC]*dT*kA*kT*eA) [compound 548422] | 700 | 0 | 32 | 71 | 93 | – | – | – | 69
548424 (antisense e[5mC]*eA*kG*dT*dA*dT*d[5mC]*dA*d[5mC]*dT*dG*dT*d[5mC]*k[5mC]*kT*eA) [compound 548424] | 300 | 17 | 67 | 86 | 72 | – | – | – | 90
